Data from patent US7902227B2, “C-7 isoxazolinyl quinolone / naphthyridine derivatives useful as antibacterial agents” (Janssen Pharmaceutica NV., priority 2008, dated 2011).
≈ marks a conversion by molar mass, not a printed value.

Key:
Format in all cases: cell-based
[1] = test system: Staphylococcus aureus OC4172; experiment: In vitro antibacterial activity (MIC), microdilution broth method (NCCLS), strain A; details: cation adjusted Mueller-Hinton broth, 35° C., 16-20 hours
Procedure: (§1) Minimal inhibitory concentration (MIC) has been an indicator of in vitro antibacterial activity widely used in the art. The in vitro antimicrobial activity of representative compounds of the present invention was determined by the microdilution broth method following the test method from the National Committee for Clinical Laboratory Standards (NCCLS). This method is described in the NCCLS Document M7-A4, Vol. 17, No. 2, “Methods for Dilution Antimicrobial Susceptibility Test for Bacteria that Grow Aerobically—Fourth Edition”, which is incorporated herein by reference.
(§2) In this method two-fold serial dilutions of drug in cation adjusted Mueller-Hinton broth are added to wells in microdilution trays. The test organisms are prepared by adjusting the turbidity of actively growing broth cultures so that the final concentration of test organism after it is added to the wells is approximately 5×10^4 CFU/well.
(§3) Following inoculation of the microdilution trays, the trays are incubated at 35° C. for 16-20 hours and then read. […] The amount of growth in the wells containing the test compound is compared with the amount of growth in the growth-control wells (no test compound) used in each tray. As set forth in Table 4, representative compounds of the present invention were tested against a variety of pathogenic bacteria resulting in a range of activities depending on the organism tested.

[2] = test system: strain D, fluoroquinolone-resistant clinical isolate of Streptococcus pneumoniae; experiment: In vitro antibacterial activity (MIC), microdilution broth method (NCCLS), strain D; details: read-out: In vitro Antibacterial Activity MIC, D
Procedure: as §1, §2, §3

[3] = test system: Streptococcus pneumoniae ATCC 49619; experiment: In vitro antibacterial activity (MIC), microdilution broth method (NCCLS), strain E; details: ATCC49619, 35° C., 16-20 hours
Procedure: as §1, §2, §3

[4] = test system: strain C, fluoroquinolone-resistant clinical isolate of Streptococcus pneumoniae; experiment: In vitro antibacterial activity (MIC), microdilution broth method (NCCLS), strain C; details: read-out: In vitro Antibacterial Activity MIC, C
Procedure: as §1, §2, §3

[5] = test system: strain B, fluoroquinolone-resistant clinical isolate of Streptococcus pneumoniae; experiment: In vitro antibacterial activity (MIC), microdilution broth method (NCCLS), strain B; details: read-out: In vitro Antibacterial Activity MIC, B
Procedure: as §1, §2, §3

SMILES | MIC [1] [µg/mL] | MIC [2] [µg/mL] | MIC [3] [µg/mL] | MIC [4] [µg/mL] | MIC [5] [µg/mL]
COc1ccc(C2=NO[C@H]3CN(c4c(F)cc5c(=O)c(C(=O)O)cn(C6CC6)c5c4OC)C[C@@H]23)cc1 (relative stereo) [ID No. 120, 7-[cis-3-(4-Methoxyphenyl)-3a,4,6,6a-tetrahydropyrrolo[3,4-d]isoxazol-5-yl]-1-cyclopropyl-8-methoxy-6-fluoro-4-oxo-1,4-dihydroquinoline-3-carboxylic acid] | 0.06 (≈ 0.122 µM) | 2 (≈ 4.05 µM) | 1 (≈ 2.03 µM) | 4 (≈ 8.11 µM) | 
COc1c(N2C[C@@H]3ON=C(c4ccc(C(F)(F)F)nc4)[C@@H]3C2)c(F)cc2c(=O)c(C(=O)O)cn(C3CC3)c12 (relative stereo) [ID No. 121, 7-[cis-3-(6-Trifluoromethyl-3-pyridyl)-3a,4,6,6a-tetrahydropyrrolo[3,4-d]isoxazol-5-yl]-1-cyclopropyl-8-methoxy-6-fluoro-4-oxo-1,4-dihydroquinoline-3-carboxylic acid] | 0.25 (≈ 0.47 µM) | 8 (≈ 15 µM) | 4 (≈ 7.51 µM) | > 16 | 0.16 (≈ 0.3 µM)
COc1c(N2C[C@@H]3ON=C(c4ccccn4)[C@@H]3C2)c(F)cc2c(=O)c(C(=O)O)cn(C3CC3)c12 (relative stereo) [ID No. 122, 7-[cis-3-(2-pyridyl)-3a,4,6,6a-tetrahydropyrrolo[3,4-d]isoxazol-5-yl]-1-cyclopropyl-8-methoxy-6-fluoro-4-oxo-1,4-dihydroquinoline-3-carboxylic acid] | < 0.12 | 2 (≈ 4.31 µM) | 1 (≈ 2.15 µM) | 16 (≈ 34.4 µM) | 16 (≈ 34.4 µM)
COc1c(N2C[C@@H]3ON=C(c4cccnc4)[C@@H]3C2)c(F)cc2c(=O)c(C(=O)O)cn(C3CC3)c12 (relative stereo) [ID No. 123, 7-[cis-3-(3-Pyridyl)-3a,4,6,6a-tetrahydropyrrolo[3,4-d]isoxazol-5-yl]-1-cyclopropyl-8-methoxy-6-fluoro-4-oxo-1,4-dihydroquinoline-3-carboxylic acid] | 0.06 (≈ 0.129 µM) | 2 (≈ 4.31 µM) | 0.5 (≈ 1.08 µM) | 8 (≈ 17.2 µM) | 8 (≈ 17.2 µM)
COc1ccc(C2=NOC3CN(c4c(F)cc5c(=O)c(C(=O)O)cn([C@@H]6C[C@@H]6F)c5c4OC)CC23)cc1 (relative stereo) [ID No. 126, 7-[cis-3-(4-Methoxyphenyl)-3a,4,6,6a-tetrahydropyrrolo[3,4-d]isoxazol-5-yl]-1-[(1R,2S)-2-fluorocyclopropyl]-6-fluoro-8-methoxy-4-oxo-1,4-dihydro-quinoline-3-carboxylic acid] | 0.03 (≈ 0.0587 µM) | 2 (≈ 3.91 µM) | 0.5 (≈ 0.978 µM) | 4 (≈ 7.82 µM) | 
COc1c(N2C[C@@H]3ON=C(c4ccccn4)[C@@H]3C2)ccc2c(=O)c(C(=O)O)cn(C3CC3)c12 (relative stereo) [ID No. 150, 7-[cis-3-(2-pyridyl)-3a,4,6,6a-tetrahydropyrrolo[3,4-d]isoxazol-5-yl]-1-cyclopropyl-8-methoxy-4-oxo-1,4-dihydroquinoline-3-carboxylic acid] | 0.06 (≈ 0.134 µM) | 8 (≈ 17.9 µM) | 1 (≈ 2.24 µM) | 8 (≈ 17.9 µM) | > 16
O=C(O)c1cn(-c2ccc(F)cc2F)c2nc(N3CC4ON=C(c5ccc(Cl)cc5)C4C3)c(F)cc2c1=O (centres unmarked) [ID No. 101, 7-[3-(4-Chloro-phenyl)-3a,4,6,6a-tetrahydro-pyrrolo[3,4-d]isoxazol-5-yl]-1-(2,4-difluoro-phenyl)-6-fluoro-4-oxo-1,4-dihydro-[1,8]naphthyridine-3-carboxylic acid] | 0.06 (≈ 0.111 µM) | 4 (≈ 7.4 µM) | 1 (≈ 1.85 µM) | 2 (≈ 3.7 µM) | 1 (≈ 1.85 µM)
COc1ccc(C2=NOC3CN(c4nc5c(cc4F)c(=O)c(C(=O)O)cn5-c4ccc(F)cc4F)CC23)cn1 (centres unmarked) [ID No. 102, 1-(2,4-Difluoro-phenyl)-6-fluoro-7-[3-(6-methoxy-pyridin-3-yl)-3a,4,6,6a-tetrahydro-pyrrolo[3,4-d]isoxazol-5-yl]-4-oxo-1,4-dihydro-[1,8]naphthyridine-3-carboxylic acid] | 0.06 (≈ 0.112 µM) | 2 (≈ 3.72 µM) | 1 (≈ 1.86 µM) | 16 (≈ 29.8 µM) | 4 (≈ 7.44 µM)
O=C(O)c1cn(-c2ccc(F)cc2F)c2nc(N3CC4ON=C(c5ccc(C(F)(F)F)nc5)C4C3)c(F)cc2c1=O (centres unmarked) [ID No. 103, 1-(2,4-Difluoro-phenyl)-6-fluoro-4-oxo-7-[3-(6-trifluoromethyl-pyridin-3-yl)-3a,4,6,6a-tetrahydro-pyrrolo[3,4-d]isoxazol-5-yl]-1,4-dihydro-[1,8]naphthyridine-3-carboxylic acid] | 0.25 (≈ 0.434 µM) | 4 (≈ 6.95 µM) | 2 (≈ 3.48 µM) | > 16 | 8 (≈ 13.9 µM)
O=C(O)c1cn(-c2ccc(F)cc2F)c2nc(N3CC4ON=C(c5ccccn5)C4C3)c(F)cc2c1=O (centres unmarked) [ID No. 104, 1-(2,4-Difluoro-phenyl)-6-fluoro-4-oxo-7-(3-pyridin-2-yl-3a,4,6,6a-tetrahydro-pyrrolo[3,4-d]isoxazol-5-yl)-1,4-dihydro-[1,8]naphthyridine-3-carboxylic acid] | 0.06 (≈ 0.118 µM) | 4 (≈ 7.88 µM) | 1 (≈ 1.97 µM) | 2 (≈ 3.94 µM) | 0.5 (≈ 0.985 µM)
O=C(O)c1cn(-c2ccc(F)cc2F)c2nc(N3CC4ON=C(c5cccnc5)C4C3)c(F)cc2c1=O (centres unmarked) [ID No. 105, 1-(2,4-Difluoro-phenyl)-6-fluoro-4-oxo-7-(3-pyridin-3-yl-3a,4,6,6a-tetrahydro-pyrrolo[3,4-d]isoxazol-5-yl)-1,4-dihydro-[1,8]naphthyridine-3-carboxylic acid] | 0.06 (≈ 0.118 µM) | 2 (≈ 3.94 µM) | 1 (≈ 1.97 µM) | 2 (≈ 3.94 µM) | 0.5 (≈ 0.985 µM)
CCOC(=O)C1=NOC2CN(c3nc4c(cc3F)c(=O)c(C(=O)O)cn4-c3ccc(F)cc3F)CC12 (centres unmarked) [ID No. 106, 1-(2,4-Difluoro-phenyl)-7-(3-ethoxycarbonyl-3a,4,6,6a-tetrahydro-pyrrolo[3,4-d]isoxazol-5-yl)-6-fluoro-4-oxo-1,4-dihydro-[1,8]naphthyridine-3-carboxylic acid] | 0.12 (≈ 0.239 µM) | > 16 | 8 (≈ 15.9 µM) | > 16 | > 16
O=C(O)c1cn(C2CC2)c2nc(N3CC4ON=C(c5ccc(Cl)cc5)C4C3)c(F)cc2c1=O (centres unmarked) [ID No. 110, 7-[3-(4-Chloro-phenyl)-3a,4,6,6a-tetrahydro-pyrrolo[3,4-d]isoxazol-5-yl]-1-cyclopropyl-6-fluoro-4-oxo-1,4-dihydro-[1,8]naphthyridine-3-carboxylic acid] | 0.06 (≈ 0.128 µM) |  | 0.5 (≈ 1.07 µM) | 8 (≈ 17.1 µM) | 
O=C(O)c1cn(C2CC2)c2nc(N3CC4ON=C(c5cccnc5)C4C3)c(F)cc2c1=O (centres unmarked) [ID No. 114, 1-Cyclopropyl-6-fluoro-4-oxo-7-(3-pyridin-3-yl-3a,4,6,6a-tetrahydro-pyrrolo[3,4-d]isoxazol-5-yl)-1,4-dihydro-[1,8]naphthyridine-3-carboxylic acid] | 0.12 (≈ 0.276 µM) | 8 (≈ 18.4 µM) | 1 (≈ 2.3 µM) | 2 (≈ 4.59 µM) | 
COc1ccc(C2=NOC3CN(c4c(F)cc5c(=O)c(C(=O)O)cn6c5c4OC[C@@H]6C)CC23)cc1 (stereo partly drawn) [ID No. 128, 7-[cis-3-(4-Methoxyphenyl)-3a,4,6,6a-tetrahydropyrrolo[3,4-d]isoxazol-5-yl]S-(−)-9,10-difluoro-2,3-dihydro-3-methyl-7-oxo-7H-pyrido-[1,2,3-de][1,4]-benzoxazine-6-carboxylic acid] | 0.12 (≈ 0.25 µM) | 4 (≈ 8.34 µM) | 1 (≈ 2.09 µM) | 4 (≈ 8.34 µM) | 
C[C@H]1COc2c(N3CC4ON=C(c5cccnc5)C4C3)c(F)cc3c(=O)c(C(=O)O)cn1c23 (stereo partly drawn) [ID No. 130, 7-[cis-3-(3-pyridyl)-3a,4,6,6a-tetrahydropyrrolo[3,4-d]isoxazol-5-yl]S-(−)-9,10-difluoro-2,3-dihydro-3-methyl-7-oxo-7H-pyrido-[1,2,3-de][1,4]-benzoxazine-6-carboxylic acid] | 0.25 (≈ 0.555 µM) | 16 (≈ 35.5 µM) | 2 (≈ 4.44 µM) | 16 (≈ 35.5 µM) | 
COc1ccc(C2=NOC3CN(c4c(F)cc5c(=O)c(C(=O)O)cn(-c6nc(N)c(F)cc6F)c5c4Cl)CC23)cc1 (centres unmarked) [ID No. 133, 1-(6-Amino-3,5-difluoro-pyridin-2-yl)-8-chloro-6-fluoro-7-[3-(4-methoxy-phenyl)-3a,4,6,6a-tetrahydro-pyrrolo[3,4-d]isoxazol-5-yl]-4-oxo-1,4-dihydro-quinoline-3-carboxylic acid] | 0.25 (≈ 0.427 µM) | 16 (≈ 27.3 µM) | 2 (≈ 3.41 µM) | 8 (≈ 13.7 µM) | 
COc1c(N2CC3ON=C(CN)C3C2)c(F)cc2c(=O)c(C(=O)O)cn(C3CC3)c12 (centres unmarked) [ID No. 202] | 0.06 (≈ 0.144 µM) | > 16 | 1 (≈ 2.4 µM) | 16 (≈ 38.4 µM) | 
COc1c(N2CC3ON=C(CN)C3C2)c(F)cc2c(=O)c(C(=O)O)cn([C@@H]3C[C@@H]3F)c12 (some centres unmarked) [ID No. 203] | 0.12 (≈ 0.276 µM) | > 16 | 2 (≈ 4.6 µM) | > 16 | 
C[C@H]1COc2c(N3CC4ON=C(CN)C4C3)c(F)cc3c(=O)c(C(=O)O)cn1c23 (some centres unmarked) [ID No. 204] | 0.25 (≈ 0.621 µM) | > 16 | 16 (≈ 39.8 µM) | > 16 | 
